The values below come from the supplement of paper PMC11061612.

One assay has as its system NB7 (Neuroblastoma). The assay can be described thus: combination Emax (second highest fraction inhibited in the dose matrix, 72 h); higher = more inhibition; extreme values may be limits of the assay. The gist of the method:
(§1)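 After 24 hours at 37°C and 5% CO2 in 1536-well plates, cells in DMEM/F12 or RPMI plus 10% FBS received two-drug dose matrices for 72 hours. Viability came from CellTiter-Glo 2.0 luminescence and was scaled as inhibition, anchored at 0 by vehicle wells and at 1 by blank wells. Combination Emax is taken as the second-highest inhibition in the matrix, and Bliss excess as the observed combination effect less EA + EB − EA·EB, with EA and EB the single-agent effects.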

Assay [1] has as its system KLE (Endometrial Carcinoma). The description is as above. The gist of the method:
as §1

Assay [2] relates to HuP-T3 (Pancreatic Carcinoma). The assay can be described thus: Bliss excess, mean over the matrix (fraction); higher = more synergy. The gist of the method: as §1
The test system of assay [3] is OCUM-1 (Gastric Carcinoma). The assay is described as above. The gist of the method: as §1
The subject of assay [4] is LC4-1 (B-Lymphoblastic Leukemia). The assay is described as above. The gist of the method: as §1
Assay [5] concerns JHH-7 (Hepatocellular Carcinoma). Described as above. The gist of the method: as §1
Assay [6] concerns LOU-NH91 (Squamous Cell Lung Carcinoma). The description is as above. The gist of the method:
as §1

Assay [7] concerns OCUB-M (Breast Carcinoma). Described as above. The gist of the method:
as §1

Assay [8] deals with HSC-2 (Oral Cavity Carcinoma). The description is as above. The gist of the method:
as §1

Assay [9] deals with ASH-3 (Thyroid Gland Carcinoma). Described as above. The gist of the method:
as §1

Assay [10] has as its system SNU-C1 (Colorectal Carcinoma). The description is as above. The gist of the method:
as §1

In another assay the test system is RPMI-7951 (Melanoma). Described as above. The gist of the method: as §1
Assay [11] relates to EMC-BAC-2 (Non-Small Cell Lung Carcinoma). The assay is described as above. The gist of the method: as §1
In the next assay the test system is EW-13 (Ewing's Sarcoma). The description is as above. The gist of the method: as §1
The test system of a further assay is IMR-5 (Neuroblastoma). Described as above. The gist of the method:
as §1

The subject of assay [12] is VMRC-LCD (Lung Adenocarcinoma). The description is as above. The gist of the method: as §1
Assay [13] deals with NCI-H513 (Other Solid Carcinomas). The description is as above. The gist of the method: as §1
The next assay has as its system GI-1 (Glioblastoma). Described as above. The gist of the method: as §1
A further assay has as its system BT-20 (Breast Carcinoma). Described as above. The gist of the method:
as §1

The test system of a further assay is GOTO (Neuroblastoma). The description is as above. The gist of the method:
as §1
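Wherever Bliss excess, mean over the matrix is given: after 72 h of two-drug dosing.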

Turning to `CCc1c2c(nc3ccc(O)cc13)-c1cc3c(c(=O)n1C2)COC(=O)[C@]3(O)CC` [SN-38] + O=C(c1cc(Cc2n[nH]c(=O)c3ccccc23)ccc1F)N1CCN(C(=O)C2CC2)CC1 [Olaparib] (first compound max 0.3 µM, 7x7, partner max 10 µM), the “combination Emax” value was found to be 0.967 with NB7 (Neuroblastoma) and 0.453 in assay [1]. Further, the Bliss excess is -0.0406 in [2]; 0.014 in assay [3]; 0.0234 in [4]; 0.0299 in assay [5]; 0.0095 in assay [6]; 0.15 in assay [7]. Also, the Bliss excess was 0.102 in [8]; 0.074 in [9]; -0.0419 in assay [10]; 0.0656 in the assay on RPMI-7951 (Melanoma); 0.0721 in assay [11]; 0.0804 in the assay on EW-13 (Ewing's Sarcoma). The Bliss excess in the assay with IMR-5 (Neuroblastoma) was 0.0721; in [12], -0.0163; in assay [13], 0.0188; with GI-1 (Glioblastoma) it was 0.0652; with BT-20 (Breast Carcinoma) it was 0.107; in the assay with GOTO (Neuroblastoma) it was -0.0014.
